Reference: paper PMC7320011, “Rationally designed ruthenium complexes for 1- and 2-photon photodynamic therapy” (Nature Communications, 2020)

How the values were obtained:
[1] = tested on: doxorubicin-selected P-gp-overexpressing human colon cancer tumor (SW620/AD300); experiment: In vivo PDT on tumor-bearing nude mice; set-up: species or system mouse; details: chloride salt, 2 mg kg^−1 i.v.
Method: Six weeks old nu/nu female mice were purchased from Charles River. For the tumor xenograft, 6 × 10^6 SW620/AD300 cells were subcutaneously (s.c.) injected with a 150 μL Matrigel and saline (1:1, v/v) suspension into the mice. After a week, the tumor volumes of the mice reached ~80 mm^3. All experiments were conducted in compliance with the ethical regulations for animal testing and received approval of the experimental animal managing committee of Sun Yat Sen University.
30 SW620/AD300 nude tumor-bearing nude mice were randomly separated into six groups, resulting in five mice for each group. After been anaesthetized, the mice was fixed in a warm three-axes holder. Before irradiation, the tumor site was disinfected with ethanol. The tumor was exposed to 1P or 2P light. Following the irradiation, the operative area was disinfection by iodophor.
Group 1: injected 7 (2 mg kg^−1, 50 μL) intravenously and irradiate under 800 nm laser (50 mW, 1 kHz, pulse width 35 fs, 5 s mm^−1) 1 h after injection; […]
(§1) The mice were anesthetized by injection of a 4% chloral hydrate aqueous solution (0.2 mL, 20 g^−1) before the treatment. The tumor volume and body weight were measured and recorded every 2 days. Tumor volume was calculated by the following formula:6 Volume=Length×Width^2/2.

[2] = In vivo tolerability: body weight, behaviour, H&E histology; set-up: species or system mouse; details: 2 mg kg^−1 i.v.
Method: as §1
The tumor and all major organs (including the heart, liver, spleen, lung, kidney, brain, intestine, and blood) were collected and a slice of each one was fixated with 4% paraformaldehyde. The obtained slices were stained with hematoxylin and eosin. The histological images were taken with a Carl Zeiss Axio Imager Z2 microscope.

COc1ccc(/C=C/c2ccnc(-c3cc(/C=C/c4ccc(OC)cc4)ccn3)c2)cc1.F[P-](F)(F)(F)(F)F.F[P-](F)(F)(F)(F)F.[Ru+2].c1ccc(-c2ccccn2)nc1.c1ccc(-c2ccccn2)nc1 [compound 7, [Ru(2,2′-bipyridine)2((E,E′)-4,4′-Bis[p-methoxystyryl]-2,2′-bipyridine)][PF6]2]
tumor growth after one PDT treatment ([1]; 1P (500 nm, 36 J cm^−2) or 2P (800 nm, 50 mW) irradiation 1 h after injection, 80 mm^3 tumor): drastically shrank until they were nearly eradicated | tumor growth without irradiation ([1]; dark): kept growing | histology of all other organs (H&E) ([2]; exposed to light): did not show any significant effect | histology of tumor tissue (H&E) ([2]; exposed to light): pathological alterations caused by the PDT treatment | behaviour of treated mice ([2]; nude mice): behaved normally, without signs of pain, stress or discomfort | body weight of treated mice ([2]; nude mice): did not lose or gain weight
